Data taken from ChEMBL document CHEMBL4765323, “Design, synthesis, and biological evaluation of novel miconazole analogues containing selenium as potent antifungal agents” (Eur J Med Chem, 2020).
Converted amounts (≈) assume the structure as drawn.

Tests used:
Candida albicans [1] = test: Antibiofilm activity against FCZ-Resistant Candida albicans CPCC400616 assessed as sessile minimum inhibitory concentration of biofilm formation at 80% after 24 hrs by XTT assay; format: functional
[2] = Ratio of hemolysis activity in rabbit RBC to MIC for Candida albicans; format: toxicity; conditions: rabbit red blood cells (RBC)
Candida albicans [3] = test: Antifungal activity against fluconazole-resistant Candida albicans 632 measured after 24 hrs by micro-broth dilution assay; format: functional
Candida albicans [4] = test: Antifungal activity against fluconazole-resistant Candida albicans 17 measured after 24 hrs by micro-broth dilution assay; format: functional
Pichia kudriavzevii = test: Antifungal activity against Candida krusei AS 2.1045 measured after 24 hrs by micro-broth dilution assay; format: functional
Candida albicans [5] = test: Antibiofilm activity against FCZ-Resistant Candida albicans CPCC400616 assessed as sessile minimum inhibitory concentration of biofilm formation at 50% after 3 hrs by XTT assay; format: functional
Cryptococcus neoformans = test: Antifungal activity against Cryptococcus neoformans CGMCC2.3161 measured after 72 hrs by micro-broth dilution assay; format: functional
Candida albicans [6] = test: Antifungal activity against fluconazole-resistant Candida albicans strain 904 measured after 24 hrs by micro-broth dilution assay; format: functional
[Candida] zeylanoides = Antifungal activity against Candida zeylanoides CMGCC2.3739 measured after 24 hrs by micro-broth dilution assay; format: functional; conditions: Dujonia zeylanoides
Candida parapsilosis = test: Antifungal activity against Candida parapsilosis ATCC 22019 measured after 24 hrs by micro-broth dilution assay; format: functional; conditions: Lodderomyces parapsilosis
Candida albicans [7] = test: Antibiofilm activity against FCZ-Resistant Candida albicans CPCC400616 assessed as sessile minimum inhibitory concentration of biofilm formation at 80% after 3 hrs by XTT assay; format: functional
Candida albicans [8] = test: Antifungal activity against Candida albicans CPCC400616 measured after 24 hrs by micro-broth dilution assay; format: functional
Candida albicans [9] = test: Antifungal activity against fluconazole-resistant Candida albicans CaR measured after 24 hrs by micro-broth dilution assay; format: functional
Candida albicans [10] = test: Antibiofilm activity against FCZ-Resistant Candida albicans CPCC400616 assessed as sessile minimum inhibitory concentration of biofilm formation at 80% after 6 hrs by XTT assay; format: functional
Candida albicans [11] = test: Antibiofilm activity against FCZ-Resistant Candida albicans CPCC400616 assessed as sessile minimum inhibitory concentration of biofilm formation at 80% after 1.5 hrs by XTT assay; format: functional
Nakaseomyces glabratus = test: Antifungal activity against clinical isolate Candida glabrata measured after 24 hrs by micro-broth dilution assay; format: functional
Candida albicans [12] = test: Antibiofilm activity against FCZ-Resistant Candida albicans CPCC400616 assessed as sessile minimum inhibitory concentration of biofilm formation at 50% after 24 hrs by XTT assay; format: functional
Candida albicans [13] = test: Antifungal activity against Candida albicans 901 measured after 24 hrs by micro-broth dilution assay; format: functional
Candida albicans [14] = test: Fungicidal activity against Candida albicans CPCC400616 measured after 48 hrs; format: functional
Candida albicans [15] = test: Antibiofilm activity against FCZ-Resistant Candida albicans CPCC400616 assessed as sessile minimum inhibitory concentration of biofilm formation at 50% after 1.5 hrs by XTT assay; format: functional
Candida albicans [16] = test: Antifungal activity against Candida albicans ATCC SC5314 measured after 24 hrs by micro-broth dilution assay; format: functional
[17] = Ratio of MFC for fungicidal activity against Candida albicans CPCC400616 to MIC for Antifungal activity against Candida albicans CPCC400616; format: functional; conditions: time 24 hrs
Aspergillus fumigatus = test: Antifungal activity against Aspergillus fumigatus CGMCC 3.7795 measured after 72 hrs by micro-broth dilution assay; format: functional
Candida albicans [18] = test: Antibiofilm activity against FCZ-Resistant Candida albicans CPCC400616 assessed as sessile minimum inhibitory concentration of biofilm formation at 50% after 6 hrs by XTT assay; format: functional
Erythrocyte = test: Hemolytic activity in rabbit RBC assessed as hemolysis ratio at 1 ug/ml measured after 3 hrs relative to control; format: ADME, cell-based, Oryctolagus cuniculus; conditions: dose 1 µg/ml
Candida albicans [19] = test: Inhibition of CYP51 in azole-resistant Candida albicans ATCC […] assessed as Lanosterol level at 2 ug/ml incubated for 16 hrs by LC-MS analysis relative to control; parameters: scale not given: the % may be the effect or the level left; conditions: dose 2.0 µg/ml
Candida albicans [20] = test: Inhibition of CYP51 in azole-resistant Candida albicans ATCC […] assessed as Obtusifoliol level at 0.5 ug/ml incubated for 16 hrs by LC-MS analysis relative to control; parameters: scale not given: the % may be the effect or the level left; conditions: dose 0.5 µg/ml
Candida albicans [21] = test: Inhibition of CYP51 in azole-resistant Candida albicans ATCC […] assessed as Obtusifoliol level at 0.125 ug/ml incubated for 16 hrs by LC-MS analysis relative to control; parameters: scale not given: the % may be the effect or the level left; conditions: dose 0.125 µg/ml
Candida albicans [22] = test: Inhibition of CYP51 in azole-resistant Candida albicans ATCC […] assessed as ergosterol level at 2 ug/ml incubated for 16 hrs by LC-MS analysis relative to control; parameters: scale not given: the % may be the effect or the level left; conditions: dose 2.0 µg/ml
Candida albicans [23] = test: Inhibition of CYP51 in azole-resistant Candida albicans ATCC […] assessed as Eburicol level at 0.5 ug/ml incubated for 16 hrs by LC-MS analysis relative to control; parameters: scale not given: the % may be the effect or the level left; conditions: dose 0.5 µg/ml
Candida albicans [24] = test: Inhibition of CYP51 in azole-resistant Candida albicans ATCC […] assessed as Lanosterol level at 8 ug/ml incubated for 16 hrs by LC-MS analysis relative to control; parameters: scale not given: the % may be the effect or the level left; conditions: dose 8.0 µg/ml
Candida albicans [25] = test: Inhibition of CYP51 in azole-resistant Candida albicans ATCC […] assessed as Eburicol level at 0.03125 ug/ml incubated for 16 hrs by LC-MS analysis relative to control; parameters: scale not given: the % may be the effect or the level left; conditions: dose 0.03125 µg/ml
Candida albicans [26] = test: Inhibition of CYP51 in azole-resistant Candida albicans ATCC […] assessed as Eburicol level at 2 ug/ml incubated for 16 hrs by LC-MS analysis relative to control; parameters: scale not given: the % may be the effect or the level left; conditions: dose 2.0 µg/ml
Candida albicans [27] = test: Inhibition of CYP51 in azole-resistant Candida albicans ATCC […] assessed as Obtusifoliol level at 0.03125 ug/ml incubated for 16 hrs by LC-MS analysis relative to control; parameters: scale not given: the % may be the effect or the level left; conditions: dose 0.03125 µg/ml
Candida albicans [28] = test: Inhibition of CYP51 in azole-resistant Candida albicans ATCC […] assessed as Obtusifoliol level at 8 ug/ml incubated for 16 hrs by LC-MS analysis relative to control; parameters: scale not given: the % may be the effect or the level left; conditions: dose 8.0 µg/ml
Candida albicans [29] = test: Inhibition of CYP51 in azole-resistant Candida albicans ATCC […] assessed as ergosterol level at 0.5 ug/ml incubated for 16 hrs by LC-MS analysis relative to control; parameters: scale not given: the % may be the effect or the level left; conditions: dose 0.5 µg/ml
Candida albicans [30] = test: Inhibition of CYP51 in azole-resistant Candida albicans ATCC […] assessed as Lanosterol level at 0.5 ug/ml incubated for 16 hrs by LC-MS analysis relative to control; parameters: scale not given: the % may be the effect or the level left; conditions: dose 0.5 µg/ml
Candida albicans [31] = test: Inhibition of CYP51 in azole-resistant Candida albicans ATCC […] assessed as inhibition of ergosterol biosynthesis by measuring ergosterol content at 8 ug/ml incubated for 16 hrs by LC-MS analysis relative to control; parameters: scale not given: the % may be the effect or the level left; conditions: dose 8.0 µg/ml
Candida albicans [32] = test: Inhibition of CYP51 in azole-resistant Candida albicans ATCC […] assessed as ergosterol level at 0.03125 ug/ml incubated for 16 hrs by LC-MS analysis relative to control; parameters: scale not given: the % may be the effect or the level left; conditions: dose 0.03125 µg/ml
Candida albicans [33] = test: Inhibition of CYP51 in azole-resistant Candida albicans ATCC […] assessed as ergosterol level at 0.125 ug/ml incubated for 16 hrs by LC-MS analysis relative to control; parameters: scale not given: the % may be the effect or the level left; conditions: dose 0.125 µg/ml
Candida albicans [34] = test: Inhibition of CYP51 in azole-resistant Candida albicans ATCC […] assessed as Lanosterol level at 0.125 ug/ml incubated for 16 hrs by LC-MS analysis relative to control; parameters: scale not given: the % may be the effect or the level left; conditions: dose 0.125 µg/ml
Candida albicans [35] = test: Inhibition of CYP51 in azole-resistant Candida albicans ATCC […] assessed as Lanosterol level at 0.03125 ug/ml incubated for 16 hrs by LC-MS analysis relative to control; parameters: scale not given: the % may be the effect or the level left; conditions: dose 0.03125 µg/ml
Candida albicans [36] = test: Inhibition of CYP51 in azole-resistant Candida albicans ATCC […] assessed as Eburicol level at 8 ug/ml incubated for 16 hrs by LC-MS analysis relative to control; parameters: scale not given: the % may be the effect or the level left; conditions: dose 8.0 µg/ml
Candida albicans [37] = test: Inhibition of CYP51 in azole-resistant Candida albicans ATCC […] assessed as Obtusifoliol level at 2 ug/ml incubated for 16 hrs by LC-MS analysis relative to control; parameters: scale not given: the % may be the effect or the level left; conditions: dose 2.0 µg/ml
Candida albicans [38] = test: Inhibition of CYP51 in azole-resistant Candida albicans ATCC […] assessed as Eburicol level at 0.125 ug/ml incubated for 16 hrs by LC-MS analysis relative to control; parameters: scale not given: the % may be the effect or the level left; conditions: dose 0.125 µg/ml

| SMILES | Activity (Candida albicans [1]) | selectivity ratio [2] | MIC (Pichia kudriavzevii) | Activity (Candida albicans [5]) | MIC (Cryptococcus neoformans) | MIC ([Candida] zeylanoides) | MIC (Candida parapsilosis) | Activity (Candida albicans [7]) | MIC (Candida albicans [8]) | Activity (Candida albicans [10]) | Activity (Candida albicans [11]) | MIC (Nakaseomyces glabratus) | Activity (Candida albicans [12]) | MIC (Candida albicans [14]) | Activity (Candida albicans [15]) | MIC (Candida albicans [16]) | MFC/MIC ratio [17] | MIC (Aspergillus fumigatus) | Activity (Candida albicans [18]) | further results |
| --- | --- | --- | --- | --- | --- | --- | --- | --- | --- | --- | --- | --- | --- | --- | --- | --- | --- | --- | --- | --- |
| Fc1ccc(Br)c(C[Se]C(Cn2ccnc2)c2ccc(Cl)cc2Cl)c1 (centres undefined) | >128 µg/mL | 256 | 0.13 µg/mL (≈ 0.256 µM) | 8 µg/mL | 0.25 µg/mL (≈ 0.493 µM) | 0.5 µg/mL (≈ 0.986 µM) | 0.02 µg/mL (≈ 0.0394 µM) | 64 µg/mL | 0.02 µg/mL (≈ 0.0394 µM) | >128 µg/mL | 8 µg/mL | 0.5 µg/mL (≈ 0.986 µM) | 128 µg/mL | 0.0625 µg/mL (≈ 0.123 µM) | 1 µg/mL | 0.01 µg/mL (≈ 0.0197 µM) | 4 | 0.5 µg/mL (≈ 0.986 µM) | 8 µg/mL | MIC (Candida albicans [3]): 0.13 µg/mL (≈ 0.256 µM); MIC (Candida albicans [4]): 0.03 µg/mL (≈ 0.0592 µM); MIC (Candida albicans [6]): 0.13 µg/mL (≈ 0.256 µM); MIC (Candida albicans [9]): 0.13 µg/mL (≈ 0.256 µM); MIC (Candida albicans [13]): 0.25 µg/mL (≈ 0.493 µM); Activity (Erythrocyte): 0.49 µg/mL |
| Clc1ccc(COC(Cn2ccnc2)c2ccc(Cl)cc2Cl)c(Cl)c1 (centres undefined) [MICONAZOLE] | >128 µg/mL | 8 | 0.5 µg/mL (≈ 1.2 µM) | 32 µg/mL | 0.5 µg/mL (≈ 1.2 µM) | 1 µg/mL (≈ 2.4 µM) | 0.25 µg/mL (≈ 0.601 µM) | 128 µg/mL | 0.25 µg/mL (≈ 0.601 µM) | >128 µg/mL | 128 µg/mL | 0.5 µg/mL (≈ 1.2 µM) | >128 µg/mL | 2 µg/mL (≈ 4.81 µM) | 16 µg/mL | 0.03 µg/mL (≈ 0.0721 µM) | 8 | 2 µg/mL (≈ 4.81 µM) | >128 µg/mL | Activity (Candida albicans [19]): 6.4%; Activity (Candida albicans [20]): 6.1%; Activity (Candida albicans [21]): 7.2%; Activity (Candida albicans [22]): 5.49%; Activity (Candida albicans [23]): 64.8%; Activity (Candida albicans [24]): 7.8%; Activity (Candida albicans [25]): 2.9%; Activity (Candida albicans [26]): 80.7%; Activity (Candida albicans [27]): 2.9%; Activity (Candida albicans [28]): 14.6%; Activity (Candida albicans [29]): 8.3%; Activity (Candida albicans [30]): 8.9%; Activity (Candida albicans [31]): 0%; Activity (Candida albicans [32]): 11.3%; Activity (Candida albicans [33]): 7.3%; Activity (Candida albicans [34]): 14.1%; Activity (Candida albicans [35]): 12.4%; Activity (Candida albicans [36]): 74.2%; Activity (Candida albicans [37]): 9.7%; Activity (Candida albicans [38]): 63.5% |
